Ends that are not written are not given here.
T1: recombinant protein His-SND1 (16-339) (UniProt Q7KZF4 16-339)
T1 sequence (looked up): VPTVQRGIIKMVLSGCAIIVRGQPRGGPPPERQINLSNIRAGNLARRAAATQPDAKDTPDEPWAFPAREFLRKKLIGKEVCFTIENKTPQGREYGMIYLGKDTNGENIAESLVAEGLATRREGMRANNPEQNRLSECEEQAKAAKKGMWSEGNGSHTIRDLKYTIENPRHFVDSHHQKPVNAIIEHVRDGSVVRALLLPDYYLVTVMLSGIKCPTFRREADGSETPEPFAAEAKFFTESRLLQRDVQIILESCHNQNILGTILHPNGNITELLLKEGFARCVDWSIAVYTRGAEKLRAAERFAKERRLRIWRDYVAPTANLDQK


What was measured:
[1] = tested on: breast cancer cells; test: Wound healing assay; format: cell-based; conditions: 36 h, compared with the control group
[2] = tested on: 4T1-luc mouse mammary tumor; test: In vivo antitumor efficacy and biosafety study, 4T1-luc tumor-bearing mice; conditions: 8 mg/kg, peritumoral injection every other day, 19 days
[3] = molecular target: T1, recombinant protein His-SND1 (16-339); test: fluorescence polarisation

Molecule	tumor migration suppression [1]	tumor growth suppression (in words) [2]	Kd [3] [nM]
C[S+]1CC[C@@H](C(=O)N[C@@H](CCC(=O)O)C(=O)N[C@@H](Cc2c[nH]c3ccccc23)C(=O)O)NC(=O)[C@H](CCCNC(=N)N)NC(=O)[C@H](Cc2c[nH]cn2)NC(=O)[C@H](CCC(=O)O)NC(=O)[C@@H](NC(=O)[C@H](CCCNC(=N)N)NC(=O)[C@H](CCCNC(=N)N)NC(=O)OCC2c3ccccc3-c3ccccc32)CC[S+](C)Cc2cccc(c2)C1 (stereo partly drawn) [Wpc]	little effect	failed to suppress the tumor growth	–
DWNEPAEEWGNWVDE (peptide, UniProt Q86UE4 393-407, looked up, also: FITC label (position not given here)) [MS2D-E]	–	–	~34

— PMC10806767 (JACS Au, 2023)
